From US11129840B2, “Methods for identifying novel dosing regimens” (Zavante Therapeutics, Inc., priority 2017, dated 2021)
Values after ≈ are worked out from the molar mass of the structure shown.

How the values were obtained:
Type in all cases: cell-based
[1] = tested on: Enterobacter cloacae complex; assay: Reference agar dilution MIC, ZEUS baseline isolates
Description: (§1) FOS was tested against 465 GN baseline clinical isolates collected in the cUTI clinical trial. Isolates were susceptibility (S) tested against comparator agents by reference broth microdilution and FOS by reference agar dilution (25 μg/mL glucose-6-phosphate supplementation). Existing FDA FOS breakpoints of ≤64 mg/L for the oral formulation were used for comparative assessments. Screen-positive ESBL Enterobacteriaceae isolates were characterized by whole genome sequencing and analysis for the presence of known β-lactamase genes.

[2] = tested on: ESBL-containing K. pneumoniae; assay: as above; conditions: Klebsiella pneumoniae
Description: as §1

E. coli = assay: as above; conditions: 329 E. coli
Description: as §1

Klebsiella pneumoniae = assay: as above
Description: as §1

Enterobacteriaceae = assay: as above
Description: as §1

ESBL-containing E. coli = assay: as above; conditions: Escherichia coli; 49 isolates
Description: as §1

[3] = tested on: ESBL-containing P. mirabilis; assay: as above; conditions: Proteus mirabilis; 3 isolates
Description: as §1

Proteus mirabilis = assay: as above; conditions: 20 isolates
Description: as §1

Pseudomonas aeruginosa = assay: as above
Description: as §1

[4] = tested on: K. pneumoniae isolates with carbapenemase genes NDM-1 and OXA-48; assay: as above; conditions: Klebsiella pneumoniae
Description: as §1

[5] = tested on: Meropenem-NS PSA (MDR PSA isolates); assay: FOF MIC by ETEST; conditions: Pseudomonas aeruginosa
Description: Meropenem-NS PSA obtained from US hospitals were studied. MICs of all antibiotics except FOF were previously determined by broth microdilution; FOF MIC was determined by ETEST® antibiotic gradient diffusion strip prior to conducting synergy assessments between FOF and aztreonam (ATM), cefepime (FEP), ceftazidime (CAZ), meropenem (MEM), piperacillin/tazobactam (TZP), and tobramycin (TOB). […] Of note, Liofilchem® MIC Test Strip was used for TZP due to commercial availability. Only organisms that were NS to the 2nd drug were assessed for synergy.

[6] = tested on: Carbapenemase-producing Enterobacteriaceae (CPE); assay: FOF MIC by ETEST; conditions: 37 CPE incl. 11 harboring fos(A)
Description: Isolates (n=37) harboring KPC, NDM, OXA, or VIM carbapenemases, with a majority also producing extended-spectrum β-lactamases, were acquired from the FDA-CDC Antimicrobial Resistant Bank. MICs for agents tested in combination with FOF were determined by broth microdilution; FOF MIC was determined by ETEST® antibiotic gradient diffusion strip prior to conducting synergy assessments between FOF and aztreonam (ATM), ceftazidime (CAZ), ceftazidime/avibactam (CZA), cefepime, ceftolozane/tazobactam (C/T), meropenem, piperacillin/tazobactam, and tobramycin (TOB). Synergistic potential for each combination was determined by crossing a FOF ETEST® strip with each of the aforementioned antibiotic strips at a 90° angle at their respective MICs with subsequent calculation of the fractional inhibitory concentration (FIC). […] Only organisms that were non-susceptible to the second drug were assessed for synergy.

## C[C@@H]1O[C@@H]1P(=O)(O)O [FOS, fosfomycin]
[1]
  MIC90: 128 µg/mL (≈ 927 µM)
[1]; 14 isolates
  MIC50: 16 µg/mL (≈ 116 µM)
[2]
  MIC90: 128 µg/mL (≈ 927 µM)
[2]; 28 isolates
  MIC50: 16 µg/mL (≈ 116 µM)
E. coli
  % S to FOS: 100.0%
Klebsiella pneumoniae; 62 isolates
  % of isolates <64 mg/L: 87.1%
Klebsiella pneumoniae; Klebsiella pneumoniae
  MIC90: 128 µg/mL (≈ 927 µM)
Klebsiella pneumoniae; Klebsiella pneumoniae, 62 isolates
  MIC50: 16 µg/mL (≈ 116 µM)
Enterobacteriaceae
  % of isolates ≤64 mg/L: 96.4%
  MIC50: 1 µg/mL (≈ 7.24 µM)
  MIC90: 16 µg/mL (≈ 116 µM)
ESBL-containing E. coli
  MIC50: 1 µg/mL (≈ 7.24 µM)
  MIC90: 2 µg/mL (≈ 14.5 µM)
[3]
  MIC50: 2 µg/mL (≈ 14.5 µM)
Proteus mirabilis
  MIC50: 2 µg/mL (≈ 14.5 µM)
  MIC90: 32 µg/mL (≈ 232 µM)
Pseudomonas aeruginosa
  MIC90: 256 µg/mL (≈ 1850 µM)
Pseudomonas aeruginosa; 21 isolates
  MIC50: 64 µg/mL (≈ 464 µM)
[4]; NDM-1 isolate
  MIC: 8 µg/mL (≈ 57.9 µM)
[4]; OXA-48 isolate
  MIC: 64 µg/mL (≈ 464 µM)
[5]
  MIC90: > 1020 µg/mL
[5]; 87 isolates, ETEST
  MIC50: 64 µg/mL
[6]
  MIC50: > 1020 µg/mL
